Data reported in patent publication US7838238B2, “Method for screening anti-HIV Drugs and a diagnostic method of AIDS” (CellFree Sciences Co., Ltd., priority 2008, dated 2010).
Peptide text beside a SMILES is read from it. * marks the point of attachment. Cbz = O=C(OCc1ccccc1)*

Tested on: intracellular Gag in SOCS1-siRNA HeLa cells
Experiment: Immunoblotting of intracellular Gag-GFP in SOCS1-siRNA HeLa cells treated with NH4Cl or MG132
Format: cell-based, human
Description: (F) HeLa cells were transfected with Cag-GFP and cotransfected with either control-siRNA or SOCS1-siRNA I. After 36 hours, the cells were treated with a mock solution, 10 mM NH4Cl or 10 μM MG132 for another 16 hours. Cell were then harvested and subjected to immunoblotting analysis with anti-GCF or anti-β-actin antibodies.

| Compound | level of intracellular Gag (10 μM MG132, 16 hours) | level of intracellular Gag (10 mM NH4Cl, 16 hours) |
| --- | --- | --- |
| CC(C)C[C@@H](C=O)NC(=O)[C@H](CC(C)C)NC(=O)[C@H](CC(C)C)NC(=O)OCc1ccccc1 [MG132] (Cbz-Leu-Leu-Leu-aldehyde) | not | – |
| Cl.N [NH4Cl] | – | significantly increased |
